Results from BindingDB's records for patent US10227314 (Sova Pharmaceuticals, 2019).
pIC50: −log10 of the molar value.

Target: Cystathionine gamma-lyase (Homo sapiens, UniProt P32929)
Assay: CSE In Vitro Assay

Sequence of Cystathionine gamma-lyase (P32929 whole entry): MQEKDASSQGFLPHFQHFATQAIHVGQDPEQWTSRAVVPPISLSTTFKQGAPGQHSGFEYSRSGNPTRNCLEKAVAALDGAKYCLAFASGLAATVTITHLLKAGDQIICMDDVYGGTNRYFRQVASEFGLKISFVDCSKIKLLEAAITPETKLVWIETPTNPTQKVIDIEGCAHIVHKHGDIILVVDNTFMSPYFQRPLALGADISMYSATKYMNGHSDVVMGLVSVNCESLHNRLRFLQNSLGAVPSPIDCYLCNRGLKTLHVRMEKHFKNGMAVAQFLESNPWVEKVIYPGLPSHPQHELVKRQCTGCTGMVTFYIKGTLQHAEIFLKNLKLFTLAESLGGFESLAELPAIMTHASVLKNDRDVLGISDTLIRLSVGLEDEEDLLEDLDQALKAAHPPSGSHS

SMILES	pIC50
N#CCC(N)c1nnn[nH]1 (configuration not stated) [US10227314, Example 1]	< 4.00
C#CC[C@H](N)c1nnn[nH]1 [US10227314, Example 2]	> 4.60
